Measurements published in US20120214784A1, “SPIROPIPERIDINE COMPOUNDS AS ORL-1 RECEPTOR ANTAGONISTS” (ELI LILLY AND COMPANY, priority 2009, published 2012).

Tests used:
[1] = target: T1, cloned human ORL1/nociceptin receptors (Homo sapiens, UniProt P41146); experiment: Functional blockade of agonist-mediated G-protein activation, GTP-γ-[35S] binding; type: biochemical
T1 construct: expressed in transfected cells
Text: Agonist-mediated stimulation of G-protein coupled receptors results in the activation of membrane associated Gαβγ-protein heterotrimer complexes, and represents the first step in the transduction of extracellular signals to modification of intracellular pathways. The first step in activation of receptor-mediated activation of Gαβγ-proteins heterotrimer is the exchange of Gα subunit bound guanosine diphoshpate (GDP) for guanosine triphosphate (GTP). The binding of GTP to the Gα subunit causes dissociation of the heterotrimer subunits, Gβ and Gγ, resulting in the modulation of several intracellular signaling cascades. Measurement of receptor-mediated G-protein activation can be measured using the non-hydrolyzable radiolabeled analog of GTP, GTP-γ-[35S]. Utilizing this methodology, antagonist affinity (Kb) is measured in membranes expressing cloned human ORL1/nociceptin receptors using a GTP-γ-[35S] binding assay according to previously described protocols with minor modifications (DeLapp et al., J Pharmacol Exp Ther. 1999 May; 289(2):946-55; Ozaki et al., Eur J Pharmacol. 2000 Aug. 18; 402(1-2):45-53). Assays are conducted in a 200-μl volume with the following buffer composition: 100 mM NaCl, 20 mM HEPES, 5 mM MgCl2, 1 mM EDTA, 0.1% BSA, 3 μM GDP, 0.5 nM [^35S]GTPγS. ORL1 receptor membrane suspension is added at a concentration of 20 μg protein per well and receptor stimulation is achieved using 300 nM nociceptin/OFQ. Wheat germ agglutinin coated SPA beads (Amersham, Arlington Hts., Ill.) are added at 1 mg per well to detect membrane-bound [^35S]GTPγS. Plates are sealed and incubated for 2 hr. at room temperature. Plates are then placed at 4° C. overnight to allow the SPA beads to settle and then counted in a Wallac Microbeta. Specific [^35S]GTPγS binding is determined as the difference in CPM observed in the absence and presence of 10 μM unlabeled GTPγS. Data are plotted as the percent of specific [^35S]GTPγS bound. Curves are plotted as the percent of specific binding and IC50 values are determined using a sigmoidal dose response curve with variable slope. Antagonist affinity (Kb) is estimated according to DeLapp et al., 1999 using a modification of the equation of Cheng and Prusoff (1973) where Kb=IC50×(1+D×EC50^−1)^−1.

[2] = target: human ERG (hERG) K+ channel (Homo sapiens, UniProt Q12809); experiment: hERG channel [3H]astemizole binding assay; conditions: HEK293 cells expressing cloned hERG, [3H]astemizole 2 nM; read-out: Ki for hERG K+ channel
Description: Blockade of K^+-channel conductance in the heart is associated with cardiotoxicity in the form of QT-wave prolongation. The affinity (Ki) of the exemplified nociceptin receptor antagonists for the human ERG (hERG) K^+ channel is determined in HEK293 cells expressing cloned hERG using the hERG channel antagonist radioligand [3H]astemizole (2 nM final assay concentration) according to well known procedures (see for example Finlayson K, et al. (Eur J Pharmacol. 412(3):203-12, 2001) [3H]Astemizole binding assays are performed at the contract research company Cerep (Paris France) according to standard procedures.

[3] = target: T2, cloned human ORL1 receptors (Homo sapiens, UniProt P41146); experiment: [3H]-OFQ/nociceptin receptor binding assay
T2 construct: expressed in transfected cells; host or cells: CHO cells (membranes)
Description: Radioligand binding assays are commonly used to determine the affinity (Ki) or potency of a compound to bind to a particular receptor or target protein. A filtration-based [3H]-OFQ/nociceptin receptor binding assay is developed based on previous assay formats (Ardati A, Henningsen R A, Higelin J, Reinscheid R K, Civelli O, Monsma F J Jr. Mol. Pharmacol. 1997 May; 51(5):816-24.) with minor modifications. [3H]-OFQ/nociceptin binding assays are carried out in deep-well 96-well plates. [^3H]OFQ (final assay concentration 0.2 nM) competition studies are carried out with 5-10 μg of membrane protein (isolated from Chinese hamster ovary cells (CHO cells) expressing cloned human ORL1 receptors) in a final assay volume of 0.5 mL of buffer containing 20 mM HEPES, pH 7.4, 5 mM MgCl2, 1 mM EGTA, 100 mM NaCl, 0.1% bovine serum albumin. Samples are incubated for 60 min. at room temperature, which is found to be optimal for competition assays. The assays are terminated by filtration through glass fiber filters (Wallac filtermat A) [pretreated with 0.3% polyethylenimine (Sigma) for 1 hr] on a Tometc cell harvester, and the filters are washed three times with 5 mL of ice-cold 50 mM Tris.HCl, pH 7.4. Filtermats are then dried and imbedded with Meltilex scintillant A and the radioactivity counted in a Wallac Microbeta scintillation counter. Specific binding is determined by displacement with 100 nM unlabeled nociceptin. Curves are plotted as the percent of specific binding and IC50 values are determined using a sigmoidal dose response curve with variable slope. K, values are calculated from the IC50 by the equation of Cheng and Prusoff (Cheng, Y. C., and Prusoff, W. H., Biochem. Pharmacol. 22, 3099-3108 (1973)) where Ki=IC50×(1+D×Kd^−1)^−1. Similarly, Ki for the mu, kappa and delta opioids, serotonin, adrenergic, and muscarinic receptors may be determined using membranes expressing the desired receptor and appropriate corresponding radioligand competitor molecules.

Adenosine A3 = Adenosine A3 (Homo sapiens, UniProt P0DMS8); experiment: Radioligand binding selectivity
[4] = tested on: wild type and ORL knockout mice; experiment: Blockade of fasting-induced hyperphagia in mice; type: in vivo, mouse; conditions: wild type mice, oral gavage 30 min. prior to food, food intake 1 hr
Text: Blockade of fasting-induced hyperphagia in rats is an accepted model for hyperphagic eating disorders. […] Mice are individually housed a minimum of 3 days prior to the onset of testing to eliminate any effects of stress due to the change from group to individual housing. Three mice/genotype are randomly assigned to each treatment group on the test day. Pre-fast body weight measurements are taken, and food is then removed from cages overnight. Mice are fasted for approximately 15 hr. The next morning, the mice are given one of three doses of drug or vehicle via oral gavage 30 min. prior to gaining access to food. Drugs are dissolved in 20% Captisol dissolved in 25 mM phosphate buffer, pH 2.0. Measurements of body weight are taken immediately prior to drug treatment or 24 hr. after access to food is restored. […] Measurements of food intake are recorded 1 hr following access to food, as indicated, by weight of food remaining at 1 hr. It should be noted that food intake measured is during the light phase, a time during which mice are typically at rest and not normally eating. Following initial testing, mice are rested for 1 week with access to unlimited chow.

human ERG (hERG) K+ channel, sequence (Q12809 whole entry): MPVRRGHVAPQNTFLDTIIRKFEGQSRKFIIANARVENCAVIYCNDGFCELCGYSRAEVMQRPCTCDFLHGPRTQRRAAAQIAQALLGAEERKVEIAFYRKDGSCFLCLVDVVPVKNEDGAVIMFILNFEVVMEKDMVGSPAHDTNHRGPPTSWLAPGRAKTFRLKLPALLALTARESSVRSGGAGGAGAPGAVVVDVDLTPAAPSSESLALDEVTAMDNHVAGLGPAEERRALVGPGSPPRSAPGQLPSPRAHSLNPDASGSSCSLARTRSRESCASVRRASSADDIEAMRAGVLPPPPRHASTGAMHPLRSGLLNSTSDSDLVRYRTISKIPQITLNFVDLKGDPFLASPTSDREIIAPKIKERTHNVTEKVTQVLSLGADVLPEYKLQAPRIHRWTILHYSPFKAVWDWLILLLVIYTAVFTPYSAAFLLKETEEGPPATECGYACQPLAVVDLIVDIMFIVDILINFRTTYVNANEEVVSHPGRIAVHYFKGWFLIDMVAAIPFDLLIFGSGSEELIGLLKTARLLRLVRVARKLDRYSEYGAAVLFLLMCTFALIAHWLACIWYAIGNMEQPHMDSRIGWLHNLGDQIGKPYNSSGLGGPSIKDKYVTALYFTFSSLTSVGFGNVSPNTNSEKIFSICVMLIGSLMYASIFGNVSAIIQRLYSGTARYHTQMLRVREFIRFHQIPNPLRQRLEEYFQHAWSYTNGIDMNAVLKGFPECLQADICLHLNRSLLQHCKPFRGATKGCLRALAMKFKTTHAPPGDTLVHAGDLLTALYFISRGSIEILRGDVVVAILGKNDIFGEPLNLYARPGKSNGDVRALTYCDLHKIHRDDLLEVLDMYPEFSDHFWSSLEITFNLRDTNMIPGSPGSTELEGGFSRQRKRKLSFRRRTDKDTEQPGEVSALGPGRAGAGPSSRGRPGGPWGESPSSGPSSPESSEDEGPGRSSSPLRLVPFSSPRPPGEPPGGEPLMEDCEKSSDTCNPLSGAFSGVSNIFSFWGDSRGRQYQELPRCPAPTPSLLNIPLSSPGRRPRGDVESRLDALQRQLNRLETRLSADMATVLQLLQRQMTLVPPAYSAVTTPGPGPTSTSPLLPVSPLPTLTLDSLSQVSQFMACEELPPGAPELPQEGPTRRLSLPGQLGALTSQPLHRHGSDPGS
T2 sequence (P41146 whole entry): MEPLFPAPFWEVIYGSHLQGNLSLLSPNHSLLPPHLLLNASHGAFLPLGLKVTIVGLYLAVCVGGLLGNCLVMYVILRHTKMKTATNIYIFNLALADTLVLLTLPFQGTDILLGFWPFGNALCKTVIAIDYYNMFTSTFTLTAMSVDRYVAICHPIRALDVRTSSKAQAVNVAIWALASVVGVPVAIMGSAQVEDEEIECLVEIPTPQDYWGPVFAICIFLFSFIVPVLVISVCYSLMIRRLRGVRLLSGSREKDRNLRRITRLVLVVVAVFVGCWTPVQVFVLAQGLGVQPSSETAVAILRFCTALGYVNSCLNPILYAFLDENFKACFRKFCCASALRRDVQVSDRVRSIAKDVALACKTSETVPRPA
T1 sequence (P41146 whole entry): as above
Adenosine A3, sequence (P0DMS8 whole entry): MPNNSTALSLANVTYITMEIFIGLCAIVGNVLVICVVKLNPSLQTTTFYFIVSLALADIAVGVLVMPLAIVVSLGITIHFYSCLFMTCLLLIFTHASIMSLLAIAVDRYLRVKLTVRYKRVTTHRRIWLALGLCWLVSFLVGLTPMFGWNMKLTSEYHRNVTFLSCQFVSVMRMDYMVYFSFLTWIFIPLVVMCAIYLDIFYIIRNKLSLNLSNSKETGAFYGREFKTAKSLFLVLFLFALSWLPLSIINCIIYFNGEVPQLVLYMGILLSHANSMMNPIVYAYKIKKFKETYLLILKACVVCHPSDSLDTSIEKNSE

Cc1nn(-c2c(F)cccc2F)cc1CN1CCC2(CC1)OCC(F)(F)c1cc(Cl)sc12.O=C(O)C(O)C(O)C(=O)O [Example 2, 2-Chloro-1′-[[1-(2,6-difluorophenyl)-3-methyl-pyrazol-4-yl]methyl]-4,4-difluoro-spiro[5H-thieno[2,3-c]pyran-7,4′-piperidine] (L)-Tartrate]
Kb [1]: 0.00043 µM
Ki [2]: 2.89 µM
Ki [3]: 0.00017 µM
Ki (Adenosine A3): 2.3 µM
fasting-induced hyperphagia [4]: substantially block fasting-induced hyperphagia
